Experiments:
Type in all cases: functional
Mus musculus [1] = assay: In vivo antineoplastic activity against Ehrlich ascites carcinoma (EAC) cells in mice at 50 mg/kg body weight upon intraperitoneal administration; conditions: ip
Mus musculus [2] = species on record: Mus musculus; assay: Observed biological activity converted into logit model against Ehrlich ascites carcinoma in mice
Mus musculus [3] = assay: In vivo antineoplastic activity against Ehrlich ascites carcinoma fluid in mice at 50 mg/kg body weight upon intraperitoneal administration; conditions: ip
Mus musculus [4] = assay: In vivo antineoplastic activity against Ehrlich ascites carcinoma fluid in mice at 1 mg/kg body weight upon intraperitoneal administration; conditions: ip
Mus musculus [5] = assay: In vivo antineoplastic activity against Ehrlich ascites carcinoma (EAC) cells in mice at 1 mg/kg body weight upon intraperitoneal administration; conditions: ip

Structure (SMILES)	inhibition in vivo at 50 mg/kg (Mus musculus [1]) [%]	logit activity (Mus musculus [2])	inhibition in vivo at 50 mg/kg (Mus musculus [3]) [%]	inhibition in vivo at 1 mg/kg (Mus musculus [4]) [%]	inhibition in vivo at 1 mg/kg (Mus musculus [5]) [%]
NNC(=O)C1CCC(=O)N1S(=O)(=O)c1ccccc1 (stereo unspecified)	40.3	-0.549	44.4	–	–
Cc1ccc(S(=O)(=O)N2C(=O)CCC2C(=O)NNc2ccccc2)cc1 (stereo unspecified)	77.6	1.89	64.3	–	–
Cc1ccc(S(=O)(=O)N2C(=O)CCC2C(=O)NN)cc1 (stereo unspecified)	50.1	0.61	52.8	–	–
NNC(=O)C1CCC(=O)N1S(=O)(=O)c1ccc(Cl)cc1 (stereo unspecified)	64.9	1.25	61.1	–	–
NNC(=O)C1CCC(=O)N1S(=O)(=O)c1ccc(Cl)c(Cl)c1 (stereo unspecified)	59.3	1.03	58.3	–	–
O=C(NNc1ccccc1)C1CCC(=O)N1S(=O)(=O)c1ccccc1 (stereo unspecified)	79	5.59	85.7	–	–
O=C(NNc1ccccc1)C1CCC(=O)N1S(=O)(=O)c1ccc(Cl)cc1 (stereo unspecified)	74.3	3.13	71.4	–	–
CO[C@@]12[C@H](COC(N)=O)C3=C(C(=O)C(C)=C(N)C3=O)N1C[C@@H]1N[C@@H]12 [MITOMYCIN]	–	–	–	100	100
O=C(NNc1ccccc1)C1CCC(=O)N1S(=O)(=O)c1ccc(Cl)c(Cl)c1 (stereo unspecified)	66.8	1.16	57.7	–	–
